From patent US20130012432A1, “Peptides for Treatment of Obesity” (Novo Nordisk A/S, priority 2010, published 2013)
≈ marks a conversion by molar mass, not a printed value. Positions of bridges follow the written chain, without caps; N, C: chain ends. Non-standard residues stand in square brackets, D forms with d. Residues, ends and D or L forms follow the SMILES beside them. Groups on a side chain read outwards from the residue. *: point of attachment. Palmitoyl(16-(5-tetrazolyl)) = O=C(CCCCCCCCCCCCCCCc1nnn[nH]1)*; Lys(CH2CO2H)2 = N[C@@H](CCCCN(CC(=O)O)CC(=O)O)C(=O)O; C17 diacid = O=C(O)CCCCCCCCCCCCCCCC(=O)*; Hyp = O=C(O)[C@@H]1C[C@@H](O)CN1; Orn = NCCC[C@H](N)C(=O)O; Dap = NC[C@H](N)C(=O)O; AEEA = NCCOCCOCC(=O)O

What was measured:
physchem = assay: physchem
Description: From a stock solution in vehicle, either H2O or 10 mM phosphate, containing 1 mg (as weighed) compound per ml, 8-11 aliquots are withdrawn and pH-adjusted individually with HCl/NaOH, to cover the whole pH range.

human MC4 receptor = human MC4 receptor (Homo sapiens, UniProt P32245); assay: biochemical
Chain of human MC4 receptor (P32245 whole entry): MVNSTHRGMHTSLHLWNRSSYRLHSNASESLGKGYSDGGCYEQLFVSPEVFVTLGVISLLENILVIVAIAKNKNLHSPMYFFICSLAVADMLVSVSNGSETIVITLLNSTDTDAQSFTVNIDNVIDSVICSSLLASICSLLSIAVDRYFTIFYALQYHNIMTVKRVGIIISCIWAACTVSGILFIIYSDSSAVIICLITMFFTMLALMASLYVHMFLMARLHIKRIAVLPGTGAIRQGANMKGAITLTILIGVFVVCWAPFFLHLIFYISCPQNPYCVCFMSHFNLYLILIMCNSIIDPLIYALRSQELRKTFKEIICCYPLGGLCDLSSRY
Description: Assay (V)—Melanocortin Receptor 4 (MC4) Binding Assay
In Vitro ^125NDP-α-MSH Binding to Recombinant BHK Cells Expressing Human MC4 Receptor (Filtration Assay).
The assay was performed in 5 ml minisorb vials (Sarstedt No. 55.526) or in 96-well filter-plates (Millipore MADVN 6550), and using BHK cells expressing the human MC4 receptor using BHK cells stably expressing the human MC4 receptor. The membranes were prepared from frozen or fresh cells that were homogenized in 20 mM HEPES pH 7.1, 5 mM MgCl2 and 1 mg/ml bacitracin and centrifuged at 15000 rpm at 4° C., 10 min in a Sorvall RC 5B plus, SS-34 rotor. The supernatant was discarded, and the pellets were re-suspended in buffer, homogenized and centrifuged two more times. The final pellets were resuspended in the buffer mentioned above, and the protein concentration was measured and adjusted with buffer to 14 to 17 mg/ml and the membrane preparation were kept at −80° C. until assay. The assay was run directly on a dilution of this cell membrane suspension, without any further preparation. The BHK cell membranes are kept at −80° C. until assay, and the assay is run directly on a dilution of this cell membrane suspension, without further preparation. The suspension is diluted to give maximally 10% specific binding, i.e. to approx. 50-100 fold dilution. The assay was performed in a total volume of 200 μl: 50 μl of cell suspension, 50 μl of ^125NDP-α-MSH (≈79 pM in final concentration), 50 μl of test compound and 50 μl binding buffer (pH 7) mixed and incubated for 2 h at 25° C. [binding buffer: 25 mM HEPES, pH 7.0, 1 mM CaCl2, 1 mM MgSO4, 1 mM EGTA, 0.02% Bacitracin, 0.005% Tween™ 20 and 0.1% HSA or, alternatively, 0.1% ovalbumin (Sigma; catalogue No. A-5503)]. Test compounds were dissolved in DMSO and diluted in binding buffer. Radiolabelled ligand and membranes were diluted in binding buffer. The incubation was stopped by dilution with 2×100 μl ice-cold 0.9% NaCl. The radioactivity retained on the filters was counted using a Cobra II auto gamma counter.
The data were analysed by non-linear regression analysis of binding curves, using the Windows™ program GraphPad™ Prism (GraphPad Software, USA).

MC1 receptor = MC1 receptor (Homo sapiens, UniProt Q01726); assay: biochemical
Chain of MC1 receptor (Q01726 whole entry): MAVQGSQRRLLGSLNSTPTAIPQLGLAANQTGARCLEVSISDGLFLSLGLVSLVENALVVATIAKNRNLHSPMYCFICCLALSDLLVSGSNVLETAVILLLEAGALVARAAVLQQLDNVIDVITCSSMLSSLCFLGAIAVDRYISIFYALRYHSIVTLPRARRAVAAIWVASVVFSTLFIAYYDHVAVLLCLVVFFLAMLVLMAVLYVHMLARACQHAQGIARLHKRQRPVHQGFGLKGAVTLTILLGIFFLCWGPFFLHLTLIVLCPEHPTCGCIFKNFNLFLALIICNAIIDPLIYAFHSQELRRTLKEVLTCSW
Summary of the method: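 Compounds competed against 125I-NDP-α-MSH (22 pM final) for binding to stably MC1-expressing BHK cell membranes, 30 °C for 90 min in HEPES pH 7.4 buffer with 0.1% HSA or ovalbumin. Bound ligand collected by filtration and counted; binding curves analysed by non-linear regression.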

SMILES	solubility (physchem; pH 6.6, Solubility Conc.)	solubility (physchem; pH 6.9, Solubility Conc.)	solubility (physchem; pH 7.3, Solubility Conc.)	solubility (physchem; pH 7.4, Solubility Conc.)	solubility (physchem; pH 7.7, Solubility Conc.)	Ki (human MC4 receptor)	Ki (MC1 receptor)	solubility (physchem; pH 8, Solubility Conc.)	solubility (physchem; pH 6.5, Solubility Conc.)	solubility (physchem; pH 6.8, Solubility Conc.)	solubility (physchem; pH 7, Solubility Conc.)	solubility (physchem; pH 7.8, Solubility Conc.)	solubility (physchem; pH 8.2, Solubility Conc.)	also measured
CC(=O)N[C@H]1CCC(=O)NC[C@@H](C(=O)N2C[C@H](O)C[C@H]2C(=O)N2C[C@H](O)C[C@H]2C(=O)N[C@@H](CCCNC(=N)N)C(=O)N[C@@H](CC(=O)O)C(=O)N[C@@H](CCCCN(CC(=O)O)CC(=O)O)C(=O)N[C@@H](CCCCNC(=O)COCCOCCNC(=O)CCCCCCCCCCCCCCCc2nnn[nH]2)C(N)=O)NC(=O)[C@H](Cc2c[nH]c3ccccc23)NC(=O)[C@H](CCCNC(=N)N)NC(=O)[C@@H](Cc2ccccc2)NC(=O)[C@H](Cc2c[nH]cn2)NC1=O [Example 31, Ac-c[Glu-His-D-Phe-Arg-Trp-Dap]-Hyp-Hyp-Arg-Asp-Lys(biscarboxymethyl)-Lys[(2-{2-[16-(tetrazol-5-yl)hexadecanoylamino]ethoxy}ethoxy)acetyl]-NH2] (Ac-EH[dF]RW[Dap][Hyp][Hyp]RD[Lys(CH2CO2H)2]K([AEEA-Palmitoyl(16-(5-tetrazolyl))])-NH2; lactam 1-6)	36 µM (≈ 79.4 µg/mL)	61 µM (≈ 134 µg/mL)	96 µM (≈ 212 µg/mL)	228 µM (≈ 503 µg/mL)	495 µM (≈ 1090 µg/mL)	17 nM	> 10000 nM	–	–	–	–	–	–	solubility (physchem; pH 7.5, Solubility Conc.): 440 µM (≈ 970 µg/mL); solubility (physchem; pH 7.9, Solubility Conc.): 529 µM (≈ 1170 µg/mL); solubility (physchem; pH 8.1, Solubility Conc.): 472 µM (≈ 1040 µg/mL)
CC(=O)N[C@H]1CCCNC(=O)CC[C@@H](C(=O)N2CCC[C@H]2C(=O)N[C@@H](CO)C(=O)N[C@@H](CO)C(=O)N[C@@H](CO)C(=O)N[C@@H](CCC(=O)O)C(=O)N[C@@H](CCC(=O)O)C(=O)N[C@@H](CO)C(=O)N[C@@H](CO)C(=O)N[C@@H](CCCCNC(=O)COCCOCCNC(=O)CCCCCCCCCCCCCCCC(=O)O)C(N)=O)NC(=O)[C@H](Cc2c[nH]c3ccccc23)NC(=O)[C@H](CCCNC(=N)N)NC(=O)[C@@H](Cc2ccccc2)NC(=O)[C@H](Cc2c[nH]cn2)NC1=O [Example 39] (Ac-[Orn]H[dF]RWEPSSSEESSK([AEEA-C17 diacid])-NH2; lactam 1-6)	403 µM (≈ 910 µg/mL)	397 µM (≈ 896 µg/mL)	–	448 µM (≈ 1010 µg/mL)	426 µM (≈ 962 µg/mL)	25 nM	> 10000 nM	397 µM (≈ 896 µg/mL)	–	–	–	–	–	solubility (physchem; pH 6.1, Solubility Conc.): 272 µM (≈ 614 µg/mL); solubility (physchem; pH 7.1, Solubility Conc.): 419 µM (≈ 946 µg/mL); solubility (physchem; pH 8.3, Solubility Conc.): 445 µM (≈ 1000 µg/mL)
CC(=O)N[C@H]1CCCCNC(=O)C[C@@H](C(=O)N2CCC[C@H]2C(=O)N2CCC[C@H]2C(=O)N[C@@H](Cc2c[nH]cn2)C(=O)N[C@@H](CCC(=O)O)C(=O)N[C@@H](CCCCN(CC(=O)O)CC(=O)O)C(=O)N[C@@H](CCCCNC(=O)COCCOCCNC(=O)CCCCCCCCCCCCCCCC(=O)O)C(N)=O)NC(=O)[C@H](Cc2c[nH]c3ccccc23)NC(=O)[C@H](CCCNC(=N)N)NC(=O)[C@@H](Cc2ccccc2)NC(=O)[C@H](Cc2c[nH]cn2)NC1=O [Example 44, Ac-c[Lys-His-D-Phe-Arg-Trp-Asp]-Pro-Pro-His-Glu-Lys(biscarboxymethyl)-Lys({2-[2-(16-carboxyhexadecanoylamino)ethoxy]ethoxy}acetyl)-NH2] (Ac-KH[dF]RWDPPHE[Lys(CH2CO2H)2]K([AEEA-C17 diacid])-NH2; lactam 1-6)	–	–	412 µM (≈ 895 µg/mL)	–	–	17 nM	> 10000 nM	408 µM (≈ 886 µg/mL)	227 µM (≈ 493 µg/mL)	407 µM (≈ 884 µg/mL)	430 µM (≈ 934 µg/mL)	429 µM (≈ 932 µg/mL)	430 µM (≈ 934 µg/mL)	solubility (physchem; pH 6.7, Solubility Conc.): 364 µM (≈ 790 µg/mL); solubility (physchem; pH 7.6, Solubility Conc.): 407 µM (≈ 884 µg/mL)
CC(=O)N[C@H]1CCCCNC(=O)C[C@@H](C(=O)N2CCC[C@H]2C(=O)N[C@@H](CO)C(=O)N[C@@H](Cc2c[nH]cn2)C(=O)N[C@@H](CCC(=O)O)C(=O)N[C@@H](CCCCN(CC(=O)O)CC(=O)O)C(=O)N[C@@H](CCCCNC(=O)COCCOCCNC(=O)CCCCCCCCCCCCCCCC(=O)O)C(N)=O)NC(=O)[C@H](Cc2c[nH]c3ccccc23)NC(=O)[C@H](CCCNC(=N)N)NC(=O)[C@@H](Cc2ccccc2)NC(=O)[C@H](Cc2c[nH]cn2)NC1=O [Example 49, Ac-c[Lys-His-D-Phe-Arg-Trp-Asp]-Pro-Ser-His-Glu-Lys(biscarboxymethyl)-Lys({2-[2-(16-carboxyhexadecanoylamino)ethoxy]ethoxy}acetyl)-NH2] (Ac-KH[dF]RWDPSHE[Lys(CH2CO2H)2]K([AEEA-C17 diacid])-NH2; lactam 1-6)	423 µM (≈ 914 µg/mL)	–	460 µM (≈ 994 µg/mL)	–	439 µM (≈ 949 µg/mL)	25 nM	> 10000 nM	410 µM (≈ 886 µg/mL)	248 µM (≈ 536 µg/mL)	427 µM (≈ 923 µg/mL)	462 µM (≈ 999 µg/mL)	456 µM (≈ 986 µg/mL)	446 µM (≈ 964 µg/mL)	–
